From patent US11066414B2, “Cot modulators and methods of use thereof” (Gilead Sciences, Inc., priority 2015, dated 2021)
Where two headings read alike, the source gives them in different places.

Experiments:
Human Cot = Human Cot (Homo sapiens (Human), UniProt P41279); test: High Throughput Cot Biochemical Assay; conditions: IC50 HTRF
TNFα = test: Cot Monocyte TNFα Cell Based Assay; conditions: Homo sapiens, Monocyte
[1] = Cot HTRF (TR-FRET) biochemical assay
[2] = read-out: EC50 TNF, LPS-stimulated human monocytes, TNFα
[3] = Cot HTRF (TR-FRET KinEASE) biochemical assay, 400 μM ATP
[4] = read-out: EC50 TNF, LPS-stimulated human monocytes, TNFα TR-FRET

Human Cot, sequence (P41279 30-397): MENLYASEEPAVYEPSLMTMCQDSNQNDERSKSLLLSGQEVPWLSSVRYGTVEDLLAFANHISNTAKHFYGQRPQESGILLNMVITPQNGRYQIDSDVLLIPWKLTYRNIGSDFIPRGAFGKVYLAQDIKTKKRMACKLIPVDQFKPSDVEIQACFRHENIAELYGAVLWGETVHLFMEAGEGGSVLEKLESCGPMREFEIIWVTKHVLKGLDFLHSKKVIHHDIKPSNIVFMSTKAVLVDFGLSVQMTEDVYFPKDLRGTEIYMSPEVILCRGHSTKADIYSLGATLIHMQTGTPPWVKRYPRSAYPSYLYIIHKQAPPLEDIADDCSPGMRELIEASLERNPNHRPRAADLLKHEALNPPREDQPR

SMILES	IC50 (Human Cot; [1]) [nM]	EC50 (TNFα; [2]) [nM]	IC50 (Human Cot; [3]) [nM]	EC50 (TNFα; [4]) [nM]
CC(C)(C)N1CCC(n2cc([C@@H](Nc3cc(Cl)c4ncc(C#N)c(Nc5ccc(Cl)c(Cl)c5F)c4c3)c3cccnc3)nn2)CC1 [Example 260, (S)-6-(((1-(1-(tert-butyl)piperidin-4-yl)-1H-1,2,3-triazol-4-yl)(pyridin-3-yl)methyl)amino)-8-chloro-4-((3,4-dichloro-2-fluorophenyl)amino)-quinoline-3-carbonitrile]	6	126		
[2H][C@](Nc1cc(Cl)c2ncc(C#N)c(Nc3cnc(F)c(F)c3)c2c1)(c1ccc(F)nc1)c1cn(C2CC2)nn1 [Example 140, (S)-8-chloro-6-(((1-cyclopropyl-1H-1,2,3-triazol-4-yl)(6-fluoropyridin-3-yl)methyl-d)amino)-4-((5,6-difluoropyridin-3-yl)amino)quinoline-3-carbonitrile]	3	183		
[2H][C@](Nc1cc(C#N)c2ncc(C#N)c(NCC(C)(C)C)c2c1)(c1ccc(F)nc1)c1cn(C2CC2)nn1 [Example 116, (S)-6-(((1-cyclopropyl-1H-1,2,3-triazol-4-yl)(6-fluoropyridin-3-yl)methyl-d)amino)-4-(neopentylamino)quinoline-3,8-dicarbonitrile]	3	144		
[2H]C([2H])([2H])C([2H])([2H])[C@@]([2H])(Nc1c(C#N)cnc2c(Cl)cc(N[C@@]([2H])(c3ccc(F)nc3)c3cn(C4CC4)nn3)cc12)c1ccccc1 [Example 109, 8-chloro-6-(((S)-(1-cyclopropyl-1H-1,2,3-triazol-4-yl)(6-fluoropyridin-3-yl)methyl-d)amino)-4-(((R)-1-phenylpropyl-1,2,2,3,3,3-d6)amino)quinoline-3-carbonitrile]	2	54		
CCN1Cc2ccc([C@H](Nc3cc(Cl)c4ncc(C#N)c(Nc5ccc(F)c(Cl)c5)c4c3)c3cn(C4CCN(C(C)(C)C)CC4)nn3)cc2C1 [Example 58, (S)-6-(((1-(1-(tert-butyl)piperidin-4-yl)-1H-1,2,3-triazol-4-yl)(2-ethylisoindolin-5-yl)methyl)amino)-8-chloro-4-((3-chloro-4-fluorophenyl)amino)quinoline-3-carbonitrile]	72	2980		
CCN1CCC(n2cc([C@H](c3cccnc3)N(CC)c3cc(Cl)c4ncc(C#N)c(Nc5ccc(F)c(Cl)c5)c4c3)nn2)CC1 [Example 368, (S)-8-chloro-4-((3-chloro-4-fluorophenyl)amino)-6-(ethyl((1-(1-ethylpiperidin-4-yl)-1H-1,2,3-triazol-4-yl)(pyridin-3-yl)methyl)-amino)quinoline-3-carbonitrile]	649	6300		
CC(C)(O)[C@H](Nc1c(C#N)cnc2c(Cl)cc(N[C@@H](c3cccnc3)c3c[nH]nn3)cc12)c1ccccc1 [Example 188, 8-chloro-4-(((R)-2-hydroxy-2-methyl-1-phenylpropyl)amino)-6-(((S)-pyridin-3-yl(1H-1,2,3-triazol-4-yl)methyl)amino)quinoline-3-carbonitrile]	> 10000	> 10000		

Other lines, results leading:

IC50 (Human Cot; [1]) [nM]	EC50 (TNFα; [2]) [nM]	IC50 (Human Cot; [3]) [nM]	EC50 (TNFα; [4]) [nM]	SMILES
		2	16	CC(C)(C)CNc1c(C#N)cnc2c(C#N)cc(N[C@H](c3cn(C45CC(C4)C5)nn3)c3ccc(F)c4ncccc34)cc12 [Example 814, (S)-6-(((1-(bicyclo[1.1.1]pentan-1-yl)-1H-1,2,3-triazol-4-yl)(8-fluoroquinolin-5-yl)methyl)amino)-4-(neopentylamino)quinoline-3,8-dicarbonitrile]
5	170			CC(C)(C)CNc1c(C#N)cnc2c(Cl)cc(N[C@H](c3cn(C4(C)CC4)nn3)c3cccc4ncccc34)cc12 [Example 568, (S)-8-chloro-6-(((1-(1-methylcyclopropyl)-1H-1,2,3-triazol-4-yl)(quinolin-5-yl)methyl)amino)-4-(neopentylamino)-quinoline-3-carbonitrile]
		51	1000	CC(C)(C)CNc1c(C#N)cnc2c(C#N)cc(N[C@@H](c3ccc(C#N)nc3)c3cn(C4(C(F)(F)F)CC4)nn3)cc12 [Example 826, (S)-6-(((6-cyanopyridin-3-yl)(1-(1-(trifluoromethyl)cyclopropyl)-1H-1,2,3-triazol-4-yl)methyl)amino)-4-(neopentylamino)quinoline-3,8-dicarbonitrile]
2	57			CC(C)(C)CNc1c(C#N)cnc2c(Cl)cc(N[C@H](c3cn(C4CC4)nn3)c3cccn4nccc34)cc12 [Example 422, (S)-8-chloro-6-(((1-cyclopropyl-1H-1,2,3-triazol-4-yl)(pyrazolo[1,5-a]pyridin-4-yl)methyl)amino)-4-(neopentylamino)-quinoline-3-carbonitrile]
		2	166	CC(C)(C)CNc1c(C#N)cnc2c(C#N)cc(N[C@H](c3cn(C4(C(F)(F)F)CC4)nn3)c3cccc4c(=O)n(CC(F)(F)F)ccc34)cc12 [Example 875, (S)-4-(neopentylamino)-6-(((1-oxo-2-(2,2,2-trifluoroethyl)-1,2-dihydroisoquinolin-5-yl)(1-(1-(trifluoromethyl)cyclopropyl)-1H-1,2,3-triazol-4-yl)methyl)amino)quinoline-3,8-dicarbonitrile]
8	210			Cn1cc2c([C@H](Nc3cc(Cl)c4ncc(C#N)c(NCC(C)(C)C)c4c3)c3cn(C4(C(F)(F)F)CC4)nn3)cccc2n1 [Example 544, (S)-8-chloro-6-(((2-methyl-2H-indazol-4-yl)(1-(1-(trifluoromethyl)cyclopropyl)-1H-1,2,3-triazol-4-yl)methyl)amino)-4-(neopentylamino)quinoline-3-carbonitrile]
117	645			Cn1ccc2c([C@H](Nc3cc(Cl)c4ncc(C#N)c(NCC(C)(C)C)c4c3)c3cn(C4(C(F)F)CC4)nn3)cccc21 [Example 736, (S)-8-chloro-6-(((1-(1-(difluoromethyl)cyclopropyl)-1H-1,2,3-triazol-4-yl)(1-methyl-1H-indol-4-yl)methyl)amino)-4-(neopentylamino)quinoline-3-carbonitrile]
5	106			Cc1nc(F)ccc1[C@H](Nc1cc(C#N)c2ncc(C#N)c(NCC(C)(C)C)c2c1)c1cn(C(C)(C)C(F)(F)F)nn1 [Example 591, (S)-6-(((6-fluoro-2-methylpyridin-3-yl)(1-(1,1,1-trifluoro-2-methylpropan-2-yl)-1H-1,2,3-triazol-4-yl)methyl)amino)-4-(neopentylamino)quinoline-3,8-dicarbonitrile]
2	35			Cc1nc(F)ccc1[C@H](Nc1cc(Cl)c2ncc(C#N)c(NCC(C)(C)C(F)(F)F)c2c1)c1cn(C2(C)CC2)nn1 [Example 720, (S)-8-chloro-6-(((6-fluoro-2-methylpyridin-3-yl)(1-(1-methylcyclopropyl)-1H-1,2,3-triazol-4-yl)methyl)amino)-4-((3,3,3-trifluoro-2,2-dimethylpropyl)amino)-quinoline-3-carbonitrile]
5	78			CCc1nc(F)ccc1[C@H](Nc1cc(Cl)c2ncc(C#N)c(NCC(C)(C)C)c2c1)c1cn(C2(C(F)F)CC2)nn1 [Example 592, (S)-8-chloro-6-(((1-(1-(difluoromethyl)cyclo-propyl)-1H-1,2,3-triazol-4-yl)(2-ethyl-6-fluoropyridin-3-yl)methyl)amino)-4-(neopentylamino)quinoline-3-carbonitrile]
